Like-named read-outs stand apart in the source and are kept apart here.
Assays:
HIV-1NL4-3 = experiment: HIV-1 infectivity assay in TZM-bl reporter cell line (LTR-luciferase, 48 h); format: cell-based; conditions: for inhibition at 1 µM: Human immunodeficiency virus 1, TZM-bl
Summary of the method: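 Nef-dependent infectivity in TZM-bl cells: HIV-1NL4-3 infection with 1 μM compound, luciferase read at 48 h, normalized against DMSO wild-type and Nef-defective controls. Compound cytotoxicity in uninfected cells measured by Cell Titer Blue.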

TZM-bl cell line = format: cell-based; conditions: human, 1 μM
Summary of the method: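 Luciferase read-out 48 h post-infection; compound at 1 μM during HIV-1NL4-3 infection of TZM-bl cells. Percent inhibition scaled to DMSO wild-type virus (0%) and DMSO Nef-defective virus (100% of Nef-dependent effect). Viability checked separately in uninfected cells by Cell Titer Blue.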

HIV-1 NL4-3 = experiment: HIV-1 replication in normal donor PBMCs (p24 Gag AlphaLISA); format: cell-based; conditions: for HIV Replication PBMC IC50 vs. HIV NL4-3: Table 1, 4 days, words (Not active, Borderline) where no bound is given
Description: (§1) FIG. 4. Inhibition of HIV-1 replication by compounds disclosed herein in PBMCs. Donor PBMCs were infected with HIV-1 in the presence of inhibitor concentrations ranging from 1 to 1,000 nM or the DMSO carrier solvent as a negative control (0.1% DMSO final). Replication was assessed by p24 Gag AlphaLISA (Perkin Elmer) […]. Each donor was also infected with Nef-defective HIV-1 to establish the baseline for Nef-dependent enhancement of replication in each culture. Cytotoxicity was assessed in uninfected PBMCs over the same incubation period using the CellTiter-Blue assay (Promega). Data were fit by non-linear regression analysis (GraphPad Prism v.7.04) to determine the IC50 and CC50 values shown.
The tables also show data for HIV-1 Replication in normal donor peripheral blood mononuclear cells (PBMCs), which is assay is conducted as follows:
(§2) Non-HLA-typed buffy coats (Source: Pittsburgh Central Blood Bank, #E3755) are received and processed within 24 hours of blood donation. PBMCs are isolated via rocking for RBC separation following 1:1 dilution with PBS, followed by Ficoll gradient centrifugation. The lymphocyte fraction is removed and washed several times for a final concentration of ˜150-300×10^6 cells per donor. Cells are activated for 3 days with 1-5 μg/mL PHA (Sigma) and 50 U/mL IL-2. Cells are plated at 750,000 cells/ml and viability is checked at day 3 using the Cell Titer Blue assay (Promega). If cells are >90% viable, then they are infected with HIV-1 NL4-3, wild-type or Δ-Nef mutant (input typically 30-500 pg/mL p24 capsid equivalents) in the presence or absence of Nef inhibitor analogs. IL-2 is included in the media at the time of infection. After 4 days, cells are lysed with 1% Triton X-100 for 1.5 h, checked for viability via Cell Titer Blue, and frozen/stored at −20° C. HIV-1 replication is assessed with a high-sensitivity HIV-1 p24 AlphaLISA assay (Perkin Elmer) in ½-volume 96-well plates, using one-half of the recommended assay volumes for all reagents (including samples). Assays are read on the BioTek Cytation5 instrument; readout is in AlphaUnits and replication in p24 pg/mL is determined using an HIV-1 p24 capsid protein standard included in the Alpha kit.

HIV-1 NefNL4-3 = HIV-1 NefNL4-3 (Human immunodeficiency virus type 1 group M subtype B, UniProt P03406, A33V/T15A/T51N/V11I); experiment: Surface plasmon resonance binding to recombinant full-length Nef (NL4-3); conditions: for RU30/RUNef (extent of binding): response units at 30 μM relative to Nef immobilized on the SPR chip
uninfected PBMCs = format: cell-based; conditions: human
Description: as §1, §2

[1] = target: Nef from SIV (strain mac239) (Simian immunodeficiency virus, UniProt Q5QGG3); experiment: biochemical
Description: Also shown are SPR data recorded on a Reichert 4-channel SPR instrument. […] Recombinant Nef is immobilized on the biosensor surface, and each compound is injected and association/dissociation kinetics are recorded. The resulting data for the 3 isoforms are each best-fit using both a two-site model and a two-step, induced-fit model. Dissociation constants (KD), calculated from the kinetic association and dissociation constants from all three isoforms, are shown in columns 6-7. Data were fit using three regimes and the resulting KD: from each model are shown in the Table: 1:1 Langmuir fit; 2-site fit, which yields low and high affinity components; and a 2-step induced fit model.

HIV-1 Nef SF2 = target: T1, HIV-1 Nef SF2 (Human immunodeficiency virus type 1 group M subtype B, UniProt P03407); experiment: biochemical; format: binding; conditions: two-step induced-fit model, Reichert SPR, read-out: Reichert SPR Nef SF2 (M) two-step fitting
T1 construct: made in house

[2] = 1.0 μM, TZM-bl reporter cell line, Table 4, read-out: % Infectivity Inhibition
[3] = KD, M, Table 4, SPR fit 1:1 Langmuir, KD = koff/kon
[4] = Table 4, 1:1 Langmuir fit, T = 1/koff
[5] = 48 h, Table 1, TZM-bl cells, 1 μM, 48 h, 100% = Nef-defective HIV-1, read-out: HIV-1 Infectivity % Inhibition Norm. to Δ-Nef @ 1 μM
[6] = KD, M, Table 4, SPR fit 2-step induced fit, KD = koff/kon × koff2/(koff2 + kon2)
[7] = Table 4, 2-step induced fit, T = 1/koff2
[8] = 1 μM, TZM-bl, normalized: DMSO wild-type HIV-1 = 0%, Nef-defective HIV-1 = 100%, read-out: HIV-1 Infectivity % Inhibition norm. to Δ-Nef @ 1 μM
[9] = Reichert SPR Nef NL43 (M) two-step fitting, KD, two-step induced-fit model, Reichert SPR, Table 3

O=C(OCc1ccccc1)N1CCC(Cc2c(-c3ccc(C(F)(F)F)cc3)nn(-c3nc4ccccc4[nH]3)c2O)CC1 [Compound I-162, benzyl 4-{[1-(1H-1,3-benzodiazol-2-yl)-5-hydroxy-3-[4-(trifluoromethyl)phenyl]-1H-pyrazol-4-yl]methyl}piperidine-1-carboxylate]
inhibition at 1 µM (HIV-1NL4-3; [2]): 77.5% | % Cell Viability (TZM-bl cell line): 90.8% | HIV Replication PBMC IC50 vs. HIV NL4-3 (HIV-1 NL4-3): Not active | Kd (HIV-1 NefNL4-3): 1.86e-09 M | Kd (HIV-1 NefNL4-3; [3]): 1.86e-09 M | Nef NL4-3 Binding, SPR 1:1 or 2-site fitting KD1 (HIV-1 NefNL4-3; Table 1, 1:1 Langmuir fit where the KD2 cell says '1 to 1 fitting', else 2-site fit): No Interaction | T, minutes (residence time) (HIV-1 NefNL4-3; [4]): 8.05E + 03 minutes | RU30/RUNef (extent of binding) (HIV-1 NefNL4-3): 4.69E- 03 | Toxicity in HIV Replication PBMC (Toxic @ concentration) (uninfected PBMCs): Toxic @ 1 μM

O=C(OCc1ccccc1)N1CCC(c2nn(-c3nc4cccc(Cl)c4[nH]3)c(O)c2CCc2ccc(F)cc2)CC1 [Compound I-166, benzyl 4-[1-(7-chloro-1H-1,3-benzodiazol-2-yl)-4-[2-(4-fluorophenyl)ethyl]-5-hydroxy-1H-pyrazol-3-yl]piperidine-1-carboxylate]
inhibition at 1 µM (HIV-1NL4-3; [2]): 24.6% | inhibition at 1 µM (HIV-1NL4-3; [5]): 24.6% | % Cell Viability (TZM-bl cell line): 97.0% | Percent Viability @ 1 μM (TZM-bl cells) (TZM-bl cell line): 97.0% | HIV Replication PBMC IC50 vs. HIV NL4-3 (HIV-1 NL4-3): Not active | Kd (HIV-1 NefNL4-3): 6.03e-09 M | Kd (HIV-1 NefNL4-3; [3]): 6.03e-09 M | T, minutes (residence time) (HIV-1 NefNL4-3; [4]): 2.07E + 03 minutes | RU30/RUNef (extent of binding) (HIV-1 NefNL4-3): 4.21E- 03 | Toxicity in HIV Replication PBMC (Toxic @ concentration) (uninfected PBMCs): Toxic @ 1 μM

CC(C)(C)OC(=O)N1CCC(CCc2c(-c3ccc(S(C)(=O)=O)cc3)nn(-c3nc4cc(Cl)ccc4[nH]3)c2O)CC1 [Compound I-215, tert-butyl 4-{2-[1-(5-chloro-1H-1,3-benzodiazol-2-yl)-5-hydroxy-3-(4-methanesulfonylphenyl)-1H-pyrazol-4-yl]ethyl}piperidine-1-carboxylate]
inhibition at 1 µM (HIV-1NL4-3; [2]): 53.5% | HIV-1 Infectivity % Inhibition Norm. to Δ-Nef @ 1 μM (HIV-1NL4-3; Table 1, TZM-bl cells, 1 μM, 48 h, 100% = Nef-defective HIV-1): 73.6% | % Cell Viability (TZM-bl cell line): 74.5% | HIV Replication PBMC IC50 vs. HIV NL4-3 (HIV-1 NL4-3): Not active | Kd (HIV-1 NefNL4-3; [6]): 1.62e-07 M | T, minutes (residence time) (HIV-1 NefNL4-3; [7]): 5.87E + 01 minutes | RU30/RUNef (extent of binding) (HIV-1 NefNL4-3): 1.00E- 02 | Toxicity in HIV Replication PBMC (Toxic @ concentration) (uninfected PBMCs): Toxic @ 1 μM

Oc1c(CCc2ccc(F)cc2)c(-c2ccc(C(F)(F)F)cc2)nn1-c1nc2cccnc2[nH]1 [Compound I-301, 4-[2-(4-fluorophenyl)ethyl]-1-{1H-imidazo[4,5-b]pyridin-2-yl}-3-[4-(trifluoromethyl)phenyl]-1H-pyrazol-5-ol]
inhibition at 1 µM (HIV-1NL4-3; [2]): 81.2% | inhibition at 1 µM (HIV-1NL4-3; [8]): 81.2% | % Cell Viability (TZM-bl cell line): 90.7% | Toxicity % Viability @ 1 μM (TZM-bl) (TZM-bl cell line): 90.7% | Kd [1]: 1.74 nM | Kd (HIV-1 NefNL4-3; [6]): 6e-11 M | Kd (HIV-1 NefNL4-3; Nef NL4-3 Binding, SPR 1:1 or 2-site fitting KD2, Table 1, 2-site fit, second component): 2.31e-05 M | Kd (HIV-1 NefNL4-3; [9]): 6e-11 M | RU30/RUNef (extent of binding) (HIV-1 NefNL4-3): 1.34E- 02 | Toxicity in HIV Replication PBMC (Toxic @ concentration) (uninfected PBMCs): Toxic @ 1 μM | Kd (HIV-1 Nef SF2): 3.69e-08 M

Oc1c(CCc2ccc(F)cc2)c(-c2ccc(C(F)(F)F)cc2)nn1-c1nc2ccncc2[nH]1 [Compound I-309, 4-[2-(4-fluorophenyl)ethyl]-1-{3H-imidazo[4,5-c]pyridin-2-yl}-3-[4-(trifluoromethyl)phenyl]-1H-pyrazol-5-ol]
inhibition at 1 µM (HIV-1NL4-3; [2]): 92.2% | inhibition at 1 µM (HIV-1NL4-3; [5]): 92.2% | % Cell Viability (TZM-bl cell line): 99.1% | Percent Viability @ 1 μM (TZM-bl cells) (TZM-bl cell line): 99.1% | HIV Replication PBMC IC50 vs. HIV NL4-3 (HIV-1 NL4-3): Not active | Kd (HIV-1 NefNL4-3): 5.76e-10 M | Kd (HIV-1 NefNL4-3; [3]): 5.76e-10 M | T, minutes (residence time) (HIV-1 NefNL4-3; [4]): 1.78E + 04 minutes | RU30/RUNef (extent of binding) (HIV-1 NefNL4-3): 1.59E- 03 | Toxicity in HIV Replication PBMC (Toxic @ concentration) (uninfected PBMCs): Toxic @ 1 μM

Oc1c(CCc2ccc(F)cc2)c(-c2ccc(C(F)(F)F)cc2)nn1-c1cc(C(F)(F)F)n[nH]1 [Compound I-601, 4-[2-(4-fluorophenyl)ethyl]-5′-(trifluoromethyl)-3-[4-(trifluoromethyl)phenyl]-2′H-[1,3′-bipyrazol]-5-ol]
inhibition at 1 µM (HIV-1NL4-3; [2]): 67.6% | inhibition at 1 µM (HIV-1NL4-3; [8]): 67.6% | inhibition at 1 µM (HIV-1NL4-3; 48 h, Table 2, TZM-bl cells, 1 μM, 48 h, 100% = Nef-defective HIV-1, read-out: HIV-1 Infectivity % Inhibition Norm. to Δ-Nef @ 1 μM): 67.6% | % Cell Viability (TZM-bl cell line): 100% | Percent Viability @ 1 μM (TZM-bl cells) (TZM-bl cell line): 101.3% | Kd [1]: 22000 nM | IC50 (HIV-1 NL4-3; Human immunodeficiency virus 1, NL43, PBMC, 96 h, Table 2, 4 days): ≤ 10 nM | Kd (HIV-1 NefNL4-3): 1.72e-06 M | Kd (HIV-1 NefNL4-3; [6]): 2.64e-05 M | Kd (HIV-1 NefNL4-3; Nef NL4-3 Binding, SPR 2-state fitting KD, Table 2, 2-step induced-fit model): 8.96e-09 M | Kd (HIV-1 NefNL4-3; [9]): 8.96e-09 M | T, minutes (residence time) (HIV-1 NefNL4-3; [7]): 5.59E + 00 minutes | Kd (HIV-1 NefNL4-3; read-out: Nef NL4-3 Binding, SPR 1:1 or 2-site fitting KD2, Table 2, 2-site fit, second component): 2.64e-05 M | RU30/RUNef (extent of binding) (HIV-1 NefNL4-3): 4.19E- 02 | Kd (HIV-1 Nef SF2): 4.55e-05 M

CC(=O)N1CCC(c2nn(-c3nc4ccc(Cl)cc4[nH]3)c(O)c2CCc2ccc(F)cc2)CC1 [Compound I-702, 1-{4-[1-(5-chloro-1H-1,3-benzodiazol-2-yl)-4-[2-(4-fluorophenyl)ethyl]-5-hydroxy-1H-pyrazol-3-yl]piperidin-1-yl}ethan-1-one]
inhibition at 1 µM (HIV-1NL4-3; [2]): 100% | inhibition at 1 µM (HIV-1NL4-3; [5]): 148% | % Cell Viability (TZM-bl cell line): 96.4% | Percent Viability @ 1 μM (TZM-bl cells) (TZM-bl cell line): 96.4% | Kd (HIV-1 NefNL4-3): 6.05e-07 M | Kd (HIV-1 NefNL4-3; [6]): 3.59e-06 M | Kd (HIV-1 NefNL4-3; Nef NL4-3 Binding, SPR 2-state fitting KD, Table 1, 2-step induced-fit model): 7.87e-07 M | T, minutes (residence time) (HIV-1 NefNL4-3; [7]): 5.05E + 00 minutes | Kd (HIV-1 NefNL4-3; read-out: Nef NL4-3 Binding, SPR 1:1 or 2-site fitting KD2, Table 1, 2-site fit, second component): 2.72e-06 M | RU30/RUNef (extent of binding) (HIV-1 NefNL4-3): 1.56E- 02 | Toxicity in HIV Replication PBMC (Toxic @ concentration) (uninfected PBMCs): Toxic @ 10 nM

Reference: US20220380341A1, “INHIBITORS OF HIV-1 NEF FOR THE TREATMENT OF HIV DISEASE” (priority 2018, published 2022)
